US20040209897A1 (Pharmacia Corporation, priority 2002, published 2004)
Where a name gives a salt, the structure may show the parent alone.

Molecular target: Recombinant MAPKAPK2 (MK-2) (Homo sapiens, UniProt P49137)
Assay: Determination of MK-2 IC50 (HSP-peptide phosphorylation, anion exchange resin capture assay)
Type: biochemical
[1] = MAPKAP2 Avg. IC50, MK-2 inhibiting activity, Table I

Recombinant MAPKAPK2 (MK-2), sequence (P49137 whole entry, species assumed): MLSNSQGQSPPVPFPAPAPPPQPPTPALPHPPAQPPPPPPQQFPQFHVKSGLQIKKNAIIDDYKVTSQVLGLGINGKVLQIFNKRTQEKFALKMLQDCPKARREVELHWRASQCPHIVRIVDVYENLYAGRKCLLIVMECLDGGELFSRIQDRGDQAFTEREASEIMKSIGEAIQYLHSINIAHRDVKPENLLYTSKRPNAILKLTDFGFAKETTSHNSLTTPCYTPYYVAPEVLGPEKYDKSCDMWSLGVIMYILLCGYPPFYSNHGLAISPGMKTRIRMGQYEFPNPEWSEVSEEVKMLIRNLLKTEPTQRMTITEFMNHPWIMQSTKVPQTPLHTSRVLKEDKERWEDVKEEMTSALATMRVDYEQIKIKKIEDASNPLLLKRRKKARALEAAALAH
Method: The phosphorylation of HSP-peptide ([sequence]) by MAPKAPK2 was measured using an anion exchange resin capture assay method. […] The reaction was terminated and [γ^33P]ATP was removed from solution by the addition of 150 μl of AG 1×8 ion exchange resin in 900 mM sodium formate pH 3.0. A 50 μl aliquot of head volume was removed from the quenched reaction mixture and added to a 96-well plate, 150 μl of Microscint-40 (Packard) was added and the amount of phosphorylated-peptide was determined.
Compounds are evaluated as potential inhibitors of the MK2 kinase by measuring their effects on MK2 phosphorylation of the peptide substrate. Compounds may be screened initially at two concentrations prior to determination of IC50 values. Screening results are expressed as percent inhibition at the concentrations of compound tested. For IC50 value determinations, compounds are tested at six concentrations in ten-fold serial dilutions with each concentration tested in triplicate. Results are expressed as IC50 values in micromolar. The assay is performed at a final concentration of 2% DMSO.

SMILES	IC50 (MAPKAP2 Avg. IC50)	other results
O=C1NCCc2[nH]c(-c3ccnc(-c4ccc(N5CCOCC5)nc4)c3)cc21 [Example 63, trifluoroacetate]	16.4 nM	
O=C1NCCc2[nH]c(-c3ccnc(/C=C/c4c(F)c(F)c(F)c(F)c4F)c3)cc21 [Example 563, trifluoroacetate]	245 nM	
O=C1NCCc2[nH]c(-c3ccnc(-c4ccc(OCC(O)CN5CCC[C@@H]5CN5CCCC5)cc4)c3)cc21 (stereo partly drawn) [Example 508, 2-[2-(4-{2-hydroxy-3-[(2R)-2-(pyrrolidin-1-ylmethyl)pyrrolidin-1-yl]propoxy}phenyl)pyridin-4-yl]-1,5,6,7-tetrahydro-4H-pyrrolo[3,2-c]pyridin-4-one trifluoroacetate]	149 nM	
O=C1NCC(c2ccccc2)c2[nH]c(-c3ccnc(-c4cnc5ccccc5c4)c3)cc21 (centres unmarked) [Example 768, 7-phenyl-2-(2-quinolin-3-ylpyridin-4-yl)-1,5,6,7-tetrahydro-4H-pyrrolo[3,2-c]pyridin-4-one trifluoroacetate]	7980 nM	
O=C(NC1CCCCC1)c1ccc(-c2cc(-c3cc4c([nH]3)CCNC4=O)ccn2)c(F)c1 [Example 391, trifluoroacetate]	83.1 nM	
O=C1NCCc2[nH]c(-c3cc(F)nc(-c4ccccc4F)c3)cc21 [Example 802, 2-[2-fluoro-6-(2-fluorophenyl)pyridin-4-yl]-1,5,6,7-tetrahydro-4H-pyrrolo[3,2-c]pyridin-4-one trifluoroacetate]		IC50 [1]: 20000 nM
NCCc1[nH]c(-c2ccnc(NN)c2)cc1C(=O)NN [Example 817, 2-(2-aminoethyl)-5-(2-hydrazinopyridin-4-yl)-1H-pyrrole-3-carbohydrazide]		IC50 [1]: 20000 nM
O=C1NCCc2[nH]c(-c3ccnc(-c4ccc5c(c4)OC=CO5)c3)cc21 [Example 62, trifluoroacetate]	16.4 nM	
CC(=O)OCC(=O)Nc1cccc(-c2cc(-c3cc4c([nH]3)CCNC4=O)ccn2)c1 [Example 279, trifluoroacetate]	51.1 nM	
O=C1NCCc2[nH]c(-c3ccnc(-c4cccc(CN5CCCC5)c4)c3)cc21 [Example 660, trifluoroacetate]	750 nM	
O=C1NCCc2cc(-c3cc(-c4cc5c([nH]4)CCNC5=O)ccn3)ccc21 [Example 161, trifluoroacetate]	28.6 nM	
C=CC(=O)Nc1cccc(-c2cc(-c3cc4c([nH]3)CCNC4=O)ccn2)c1 [N-[3-[4-(4-oxo-4,5,6,7-tetrahydro-1H-pyrrolo[3,2-c]pyridin-2-yl)pyridin-2-yl]phenyl}acrylamide]		kind of MK-2 inhibition (irreversible): irreversible inhibitor
O=C(CCl)NCc1cccc(-c2cc(-c3cc4c([nH]3)CCNC4=O)ccn2)c1 [Example 344, trifluoroacetate]	65.9 nM	
CN(N)c1cc(-c2cc3c([nH]2)CCNC3=O)ccn1 [Example 756, 2-[2-(1-methylhydrazino)pyridin-4-yl]-1,5,6,7-tetrahydro-4H-pyrrolo[3,2-c]pyridin-4-one]	4910 nM	
O=C(/C=C/c1ccccc1)Nc1ccc(-c2cc(-c3cc4c([nH]3)CCNC4=O)ccn2)cc1 [Example 403, trifluoroacetate]	87.7 nM	
O=C1NCCc2[nH]c(-c3ccc(O)c(-c4cnc5ccccc5c4)c3)cc21 [Example 676]	937 nM	
C=CC(=O)NCc1cccc(-c2cc(-c3cc4c([nH]3)CCNC4=O)ccn2)c1 [Example 351, hydrochloride]	69.2 nM	
CC(C)C(=O)Nc1ccc(-c2cc(-c3cc4c([nH]3)CCNC4=O)ccn2)cc1 [Example 88, trifluoroacetate]	19.5 nM	
COC(=O)N1CC(c2cc(-c3cc4c([nH]3)CCNC4=O)ccn2)=Cc2ccccc21 [Example 362, trifluoroacetate]	73.8 nM	
O=C(O)c1ccc(-c2cc(-c3cc4c([nH]3)CCNC4=O)c(F)cn2)cc1 [Example 28]	10.1 nM	
O=C(O)/C=C\C(=O)NCc1cccc(-c2cc(-c3cc4c([nH]3)CCNC4=O)ccn2)c1 [Example 369, trifluoroacetate]	76 nM	
CC(C)CCN(CCCc1ccc(-c2cc(-c3cc4c([nH]3)CCNC4=O)ccn2)cn1)CCC(C)C [Example 511, 2-(6′-{3-(bis(3-methylbutyl)amino]propyl}-2,3′-bipyridin-4-yl)-1,5,6,7-tetrahydro-4H-pyrrolo[3,2-c]pyridin-4-one trifluoroacetate]	151 nM	
Cc1cncc(-c2cc(-c3cc4c([nH]3)CCNC4=O)ccn2)c1 [Example 111, trifluoroacetate]	22.5 nM	
O=C1NCCc2[nH]c(-c3cc(-c4cnc5ccccc5c4)ncc3F)cc21 [Example 4, trifluoroacetate]	7 nM	
CC1Cc2[nH]c(-c3ccnc(-c4ccc(N(C)C)nc4)c3)cc2C(=O)N1 (centres unmarked) [Example 295, trifluoroacetate]	53.4 nM	
O=C(CCCOc1ccc(-c2cc(-c3cc4c([nH]3)CCNC4=O)ccn2)cc1)NCCN1CCOCC1 [Example 357, trifluoroacetate]	72.2 nM	
CC(C)=NNc1cc(-c2cc3c([nH]2)CCNC3=O)ccn1 [Example 491]	133 nM	

Second part, led by results:

IC50 (MAPKAP2 Avg. IC50)	SMILES	other results
35.5 nM	O=Cc1cccc(-c2cc(-c3cc4c([nH]3)CCNC4=O)ccn2)c1 [Example 204, trifluoroacetate]	
5770 nM	CCN(CC)c1ccccc1/C=C/c1cc(-c2cc3c([nH]2)CCNC3=O)ccn1 [Example 762, trifluoroacetate]	
64.3 nM	O=C(/C=C/c1ccccc1)Nc1cc(-c2cc3c([nH]2)CCNC3=O)ccn1 [Example 334, trifluoroacetate]	
171 nM	O=C1NCCc2[nH]c(-c3ccnc(/C=C/c4ccccc4N4CCOCC4)c3)cc21 [Example 529, 2-{2-[(E)-2-(2-morpholin-4-ylphenyl)vinyl]pyridin-4-yl}-1,5,6,7-tetrahydro-4H-pyrrolo[3,2-c]pyridin-4-one trifluoroacetate]	
62.3 nM	N#Cc1ccc(-c2cc(-c3cc4c([nH]3)CCNC4=O)ccn2)cc1 [Example 327, trifluoroacetate]	
1760 nM	O=C1NCCc2[nH]c(-c3ccnc(/C=C/Cc4ccccc4)c3)cc21 [Example 713, trifluoroacetate]	
820 nM	O=C1NCCc2[nH]c(-c3ccnc(/C=C/c4ccccc4N4CCCCC4)c3)cc21 [Example 671, trifluoroacetate]	
295 nM	O=C1NCCc2[nH]c(-c3ccnc(/C=C/c4cccc(Oc5ccccc5)c4)c3)cc21 [Example 581, trifluoroacetate]	
816 nM	O=C1NCCc2[nH]c(-c3ccnc(/C=C/c4ccccc4-c4ccccc4)c3)cc21 [Example 670, trifluoroacetate]	
19.9 nM	Nc1ccc(-c2cc(-c3cc4c([nH]3)CCNC4=O)ccn2)cn1 [Example 90, trifluoroacetate]	
38.9 nM	N#Cc1ccccc1/C=C/c1cc(-c2cc3c([nH]2)CCNC3=O)ccn1 [Example 225, trifluoroacetate]	
342 nM	CC(C)c1ccccc1/C=C/c1cc(-c2cc3c([nH]2)CCNC3=O)ccn1 [Example 599, trifluoroacetate]	
14400 nM	O=C(NCc1ccccc1)c1cc(-c2cc3c([nH]2)CCNC3=O)ccn1 [Example 787, trifluoroacetate]	
29.6 nM	COc1cc(/C=C/c2cc(-c3cc4c([nH]3)CCNC4=O)ccn2)cc(OC)c1 [Example 171, trifluoroacetate]	
101 nM	CCc1ccc(-c2cc(-c3cc4c([nH]3)CCNC4=O)ccn2)cc1 [Example 434, trifluoroacetate]	
721 nM	CCCCc1cccc(-c2cc(-c3cc4c([nH]3)CCNC4=O)ccn2)c1 [Example 659, trifluoroacetate]	

IC50 (MAPKAP2 Avg. IC50)	SMILES	other results
19.1 nM	C=CC(=O)Nc1cccc(-c2cc(-c3cc4c([nH]3)CCNC4=O)ccn2)c1 [Example 82, trifluoroacetate]	
3750 nM	O=C1NCCc2[nH]c(-c3ccnc(/C=C\Cc4ccccc4)c3)cc21 [Example 749, trifluoroacetate]	
562 nM	O=C1NCCc2[nH]c(-c3ccnc(/C=C/c4ccc(-c5ccccc5)cc4)c3)cc21 [Example 639, trifluoroacetate]	
120 nM	CN(C)S(=O)(=O)c1ccc(-c2cc(-c3cc4c([nH]3)CCNC4=O)ccn2)cc1 [Example 470]	
92.3 nM	CON=C(C)c1ccc(-c2cc(-c3cc4c([nH]3)CCNC4=O)ccn2)cc1 [Example 415]	
16 nM	O=C1NCCc2[nH]c(-c3ccnc(/C=C/c4c(F)cccc4F)c3)cc21 [Example 59, trifluoroacetate]	
14300 nM	N/N=C(\c1ccccc1)c1cc(-c2cc3c([nH]2)CCNC3=O)ccn1 [Example 786, 2-{2-[(E)-hydrazono(phenyl)methyl]pyridin-4-yl}-1,5,6,7-tetrahydro-4H-pyrrolo[3,2-c]pyridin-4-one trifluoroacetate]	
50.1 nM	O=C1NCCc2[nH]c(-c3ccnc(/C=C/c4c[nH]c5ccccc45)c3)cc21 [Example 276, trifluoroacetate]	
51.2 nM	CC(=O)c1ccc(-c2cc(-c3cc4c([nH]3)CCNC4=O)ccn2)cc1 [Example 280, trifluoroacetate]	
32.4 nM	O=C1NCCc2[nH]c(-c3ccnc(/C=C/c4cccc(CCN5CCOCC5)c4)c3)cc21 [Example 192, trifluoroacetate]	
297 nM	C/C(=C\c1cc(-c2cc3c([nH]2)CCNC3=O)ccn1)c1ccccc1 [Example 582, trifluoroacetate]	
66.7 nM	CC(=NO)c1ccc(-c2cc(-c3cc4c([nH]3)CCNC4=O)ccn2)cc1 [Example 349, trifluoroacetate]	
150 nM	O=C1NCCc2[nH]c(-c3ccnc(/C=C/c4ccc(C(F)(F)F)cc4F)c3)cc21 [Example 510, 2-(2-{(E)-2-[2-fluoro-4-(trifluoromethyl)phenyl]vinyl}pyridin-4-yl)-1,5,6,7-tetrahydro-4H-pyrrolo[3,2-c]pyridin-4-one trifluoroacetate]	
28.1 nM	O=C1NCCc2[nH]c(-c3ccnc(/C=C/c4ccc(N5CCOCC5)c(F)c4)c3)cc21 [Example 156, trifluoroacetate]	
87.5 nM	O=C(CCl)Nc1cccc(-c2cc(-c3cc4c([nH]3)CCNC4=O)ccn2)c1 [Example 401, trifluoroacetate]	
22 nM	COC(=O)c1ccc(-c2cc(-c3cc4c([nH]3)CCNC4=O)ccn2)cc1 [Example 105, trifluoroacetate]	
